Assay [1] deals with Escherichia coli. As to the kind of experiment: Antibacterial against Escherichia coli ATCC 8739 at 20 mg/mL after 24 hrs by NCCLS M7-A6 method. The assay is classed as functional, organism-based.
In assay [2] the test system is Staphylococcus aureus. As to the kind of experiment: Antibacterial against Staphylococcus aureus ATCC 6538 at 20 mg/mL after 24 hrs by NCCLS M7-A6 method. It is filed as functional, organism-based.
For assay [3], the system named is Escherichia coli. As to the kind of experiment: Antibacterial against Escherichia coli ATCC 10536 at 20 mg/mL after 24 hrs by NCCLS M7-A6 method. It is filed as functional, organism-based.
The test system of assay [4] is Staphylococcus aureus. As to the kind of experiment: Antibacterial against Staphylococcus aureus ATCC 6538P at 20 mg/mL after 24 hrs by NCCLS M7-A6 method. It is filed as functional, organism-based.
The test system of assay [5] is Micrococcus luteus. As to the kind of experiment: Antibacterial against Micrococcus luteus ATCC 9341 after 24 hrs by NCCLS M7-A6 method. It is filed as functional.
Assay [6] concerns Bacillus cereus. As to the kind of experiment: Antibacterial against Bacillus cereus ATCC 11778 at 20 mg/mL after 24 hrs by NCCLS M7-A6 method. The assay is classed as functional, organism-based.
For assay [7], the system named is Bacillus subtilis. As to the kind of experiment: Antibacterial against Bacillus subtilis ATCC 6633 at 20 mg/mL after 24 hrs by NCCLS M7-A6 method. The assay is classed as functional, organism-based.
The subject of assay [8] is Bacillus subtilis. As to the kind of experiment: Antibacterial against Bacillus subtilis ATCC 6633 after 24 hrs by NCCLS M7-A6 method. The assay is classed as functional.
Assay [9] concerns Escherichia coli. As to the kind of experiment: Antibacterial against Escherichia coli ATCC 10536 after 24 hrs by NCCLS M7-A6 method. The assay is classed as functional. The following applies: ATCC 10536, 24 h.
In assay [10] the test system is Staphylococcus aureus. As to the kind of experiment: Antibacterial against Staphylococcus aureus ATCC 6538 after 24 hrs by NCCLS M7-A6 method. The assay is classed as functional. The following applies: ATCC 6538, 24 h.
The test system of assay [11] is Bacillus cereus. As to the kind of experiment: Antibacterial against Bacillus cereus ATCC 11778 after 24 hrs by NCCLS M7-A6 method. It is filed as functional.
Assay [12] deals with Staphylococcus aureus. As to the kind of experiment: Antibacterial against Staphylococcus aureus ATCC 6538P after 24 hrs by NCCLS M7-A6 method. The assay is classed as functional.
For assay [13], the system named is Micrococcus luteus. As to the kind of experiment: Antibacterial against Micrococcus luteus ATCC 10240 at 20 mg/mL after 24 hrs by NCCLS M7-A6 method. It is filed as functional, organism-based.
Setting [14] is: Micrococcus luteus, ATCC 9341, 24 h, read-out: MIC.
Setting [15] is: Bacillus subtilis, ATCC 6633, 24 h, read-out: MIC.
Where [16] appears, read: Bacillus cereus, ATCC 11778, 24 h, read-out: MIC.

≈ marks a conversion by molar mass, not a printed value. Calls of active or inactive are those of the source. No cut-off for these calls is given here.

Broadly, the MIC is the lowest concentration found to suppress growth. On to `CC(=O)c1c(OCCN2CCOCC2)ccc2c(C)cc(=O)oc12`, for which the outcome in assay [1], in assay [2], in [3], in [4], in [6] and in assay [7] was inactive. The MIC in assay [5] (setting [14]) stood at 30.2 mM (≈ 10000 µg/mL).
Turning to `CC(=O)c1cc2c(C)cc(=O)oc2cc1OCCN(C)Cc1ccccc1`, the MIC in [8] (setting [15]) amounted to 24.3 mM (≈ 8880 µg/mL); in assay [9] it was 24.3 mM (≈ 8880 µg/mL); in assay [10], 24.3 mM (≈ 8880 µg/mL); in assay [11] (setting [16]) it was 24.3 mM (≈ 8880 µg/mL); in assay [5] (setting [14]) it was 1.5 mM (≈ 548 µg/mL); in [12] it was 24.3 mM (≈ 8880 µg/mL).
`Cc1cc(=O)oc2cc(OCC[N+]3(C)CCCCC3C)ccc12` (stereo not drawn): the minimum inhibitory concentration (MIC) is 22.6 mM in assay [8] (setting [15]), 45.1 mM in [11] (setting [16]) and 22.6 mM in [5] (setting [14]). The result in assay [1], in [2], in [3] and in [4] was inactive.
As for `CC(=O)c1cc2c(C)cc(=O)oc2cc1OCCN1CCCCC1`, the minimal inhibitory concentration (MIC) came out at 1.7 mM (≈ 560 µg/mL) in assay [8] (setting [15]); 13.3 mM (≈ 4380 µg/mL) in assay [9]; 13.3 mM (≈ 4380 µg/mL) in [10]; 1.7 mM (≈ 560 µg/mL) in assay [11] (setting [16]); 1.7 mM (≈ 560 µg/mL) in [5] (setting [14]); 6.7 mM (≈ 2210 µg/mL) in assay [12].
Consider `CCN(CC)CCOc1ccc2c(C)cc(=O)oc2c1C(C)=O`, for which the MIC in assay [8] (setting [15]) turned out to be 3.9 mM (≈ 1240 µg/mL); in assay [10], 3.9 mM (≈ 1240 µg/mL); in assay [11] (setting [16]) it was 3.9 mM (≈ 1240 µg/mL); in assay [5] (setting [14]) it was 2 mM (≈ 635 µg/mL); in assay [12], 3.9 mM (≈ 1240 µg/mL).
Consider `CC1CCCCN1CCOc1ccc2ccc(=O)oc2c1` (stereo not drawn), for which the MIC was 30.9 mM (≈ 8880 µg/mL) in [8] (setting [15]); 30.9 mM (≈ 8880 µg/mL) in assay [9]; 46.3 mM (≈ 13300 µg/mL) in assay [10]; 30.9 mM (≈ 8880 µg/mL) in [11] (setting [16]); 15.4 mM (≈ 4430 µg/mL) in assay [5] (setting [14]); 61.8 mM (≈ 17800 µg/mL) in assay [12].
As to `CC(=O)c1cc2c(C)cc(=O)oc2cc1O`, the minimum inhibitory concentration (MIC) in assay [8] (setting [15]) was 22.9 mM (≈ 5000 µg/mL); in assay [10], 45.8 mM (≈ 9990 µg/mL); in assay [11] (setting [16]), 4.6 mM (≈ 1000 µg/mL); in assay [5] (setting [14]) it was 45.8 mM (≈ 9990 µg/mL). For the same molecule, the result in assay [1], in assay [3] and in assay [4] was inactive.
Take `CC(=O)c1cc2c(C)cc(=O)oc2cc1OCCN1CCCCC1C` (stereo not drawn): the MIC came to 1.6 mM (≈ 549 µg/mL) in [8] (setting [15]); 26.3 mM (≈ 9030 µg/mL) in assay [9]; 26.3 mM (≈ 9030 µg/mL) in [10]; 1.6 mM (≈ 549 µg/mL) in assay [11] (setting [16]); 6.6 mM (≈ 2270 µg/mL) in assay [5] (setting [14]); 26.3 mM (≈ 9030 µg/mL) in assay [12]. In addition, in [1], the outcome was inactive.
On to `CCN(CC)CCOc1cc2oc(=O)cc(C)c2cc1C(C)=O`, for which the MIC is 31.5 mM (≈ 10000 µg/mL) in assay [8], 63 mM (≈ 20000 µg/mL) in [11] and 31.5 mM (≈ 10000 µg/mL) in [5].
For the molecule `CC(=O)c1c(OCCN(C(C)C)C(C)C)ccc2c(C)cc(=O)oc12`, the outcome in [1], in assay [2], in assay [3], in assay [4], in assay [13] and in assay [6] was inactive. The outcome in assay [7] was inactive. In [5] (setting [14]), the minimum inhibitory concentration (MIC) worked out at 25 mM (≈ 8640 µg/mL).
Take `Cc1cc(=O)oc2cc(OCCN3CCCCC3C)ccc12` (stereo not drawn): the MIC in [8] (setting [15]) came to 14.4 mM (≈ 4340 µg/mL); in [9], 14.4 mM (≈ 4340 µg/mL); in [10] it was 43.2 mM (≈ 13000 µg/mL); in [11] (setting [16]) it was 28.8 mM (≈ 8680 µg/mL); in [5] (setting [14]) it was 14.4 mM (≈ 4340 µg/mL); in assay [12] it was 28.8 mM (≈ 8680 µg/mL).
Consider `CC(=O)c1cc2c(C)cc(=O)oc2cc1OCCN(C(C)C)C(C)C`, for which the minimal inhibitory concentration (MIC) in assay [8] (setting [15]) came to 12.5 mM (≈ 4320 µg/mL); in assay [11] (setting [16]) it was 12.5 mM (≈ 4320 µg/mL); in assay [5] (setting [14]), 37.5 mM (≈ 13000 µg/mL). The outcome in [1], in assay [2], in assay [3] and in assay [4] was inactive.
As for `CC(=O)c1c(OCCN2CCCCC2)ccc2c(C)cc(=O)oc12`, the MIC in assay [8] (setting [15]) was 39.1 mM (≈ 12900 µg/mL); in assay [9] it was 13 mM (≈ 4280 µg/mL); in assay [10], 39.1 mM (≈ 12900 µg/mL); in assay [11] (setting [16]), 26.1 mM (≈ 8600 µg/mL); in assay [5] (setting [14]) it was 6.5 mM (≈ 2140 µg/mL); in assay [12] it was 39.1 mM (≈ 12900 µg/mL).
In the case of `CCN(CC)CCOc1ccc2c(C)cc(=O)oc2c1`, the MIC in assay [8] (setting [15]) worked out at 2 mM (≈ 551 µg/mL); in assay [9], 8 mM (≈ 2200 µg/mL); in [10] it was 32.1 mM (≈ 8840 µg/mL); in [11] (setting [16]), 2 mM (≈ 551 µg/mL); in assay [5] (setting [14]) it was 2 mM (≈ 551 µg/mL); in assay [12], 32.1 mM (≈ 8840 µg/mL).
In the case of `O=c1ccc2ccc(OCCN3CCOCC3)cc2o1`, the minimum inhibitory concentration (MIC) in assay [8] (setting [15]) amounted to 72.6 mM (≈ 20000 µg/mL); in [9], 36.3 mM (≈ 9990 µg/mL); in assay [10], 72.6 mM (≈ 20000 µg/mL); in assay [11] (setting [16]), 72.6 mM (≈ 20000 µg/mL); in assay [5] (setting [14]), 18.2 mM (≈ 5010 µg/mL); in [12], 36.3 mM (≈ 9990 µg/mL).

For the origin of these results see ChEMBL document CHEMBL1781990, “Synthesis and pharmacological activity of O-aminoalkyl derivatives of 7-hydroxycoumarin” (2011).
